# Assays:
# [1] = target: T1, CRTh2 receptor (Homo sapiens, UniProt Q9Y5Y4); experiment: CRTh2 cAMP functional assay; assay type: cell-based; design: expressed in transfected cells; host or cells: CHO cells; conditions: CHO cells stably transfected with CRTh2; 10 nM PGD2 and 5 μM forskolin; cAMP Alphascreen
# T1 sequence (Q9Y5Y4 1-395): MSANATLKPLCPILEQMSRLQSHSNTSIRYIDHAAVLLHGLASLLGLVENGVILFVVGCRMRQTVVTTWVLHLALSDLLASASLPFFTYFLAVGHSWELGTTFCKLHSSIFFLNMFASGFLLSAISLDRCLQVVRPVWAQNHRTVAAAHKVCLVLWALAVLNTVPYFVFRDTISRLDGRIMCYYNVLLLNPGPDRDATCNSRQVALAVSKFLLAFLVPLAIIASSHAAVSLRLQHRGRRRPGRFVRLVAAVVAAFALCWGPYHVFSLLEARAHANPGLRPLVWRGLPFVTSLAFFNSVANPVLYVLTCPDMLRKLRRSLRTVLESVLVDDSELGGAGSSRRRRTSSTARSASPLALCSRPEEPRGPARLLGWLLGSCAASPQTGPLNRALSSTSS
# Description: CRTh2 cAMP Assay Protocol
# Test compounds are prepared in assay stimulation buffer/DMSO and 5 μL/well is added to an assay plate (384-well white opti-plate).
# CHO cells stably transfected with the CRTh2 receptor are prepared (dissociated from a cell culture flask and washed in PBS) to a concentration of 4×10^6/mL in assay stimulation buffer and added to the assay plate (10 μL/well).
# The assay plate is incubated at room temperature on a shaker for 15 minutes.
# A mix of agonist (10 nM PGD2) and 5 μM forskolin is prepared in assay stimulation buffer and added to the assay plate (5 μL/well).
# In addition, a cAMP standard is serially diluted in assay stimulation buffer and added to separate empty wells on the assay plate (20 μL/well).
# The assay plate is incubated at room temperature on a shaker for 60 minutes.
# A cell lysis mix (lysis buffer containing Alphascreen™ donor beads and biotinylated cAMP) is prepared under darkened conditions 60 minutes prior to addition. Alphascreen™ acceptor beads are added to the lysis mix after 60 minutes. […]
# The assay plate is sealed with Topseal-S™ and incubated in the dark at room temperature on a shaker for 45 minutes. The plate is then counted using a Packard Fusion™ instrument.
# The resulting counts per minute are converted to nM cAMP by using the prepared cAMP standard curve. IC50 values are then determined using Prism™ software.
# [2] = target: T1, CRTh2 receptor; experiment: Scintillation Proximity Assay (SPA) binding assay, 3H PGD2; design: expressed in transfected cells; host or cells: K562 or CHO cells, membranes; conditions: membranes from K562 or CHO cells stably transfected with human CRTh2; 3H prostaglandin D2
# Description: Scintillation Proximity Assay (SPA) protocol
# Membranes are prepared from K562 or Chinese Hamster Ovary (CHO) cells stably transfected with human CRTh2 receptors.
# The assay is performed in a 96-well U-bottomed polypropylene plate in a final volume of 100 μL and the components of the assay are added as follows: test compound in DMSO/assay buffer (25 μL), ^3H prostaglandin D2 (PGD2) (25 μL) and CRTh2 membrane fragments (50 μL). The assay is incubated at ambient temperature with shaking for 60 minutes, then harvested on to filter plates. The plate is dried for 2 hours, prior to addition of Micro-Scint 20M (50 μL) and sealing with TopSeal-S™. Plates are then counted using a Packard Top Count instrument, each well being counted for 20 minutes. Ki values are determined using Sigma Plot™ software.
IC50 [1] [nM],Ki [2] [nM],Compound
68,,"CCOC(=O)COc1ccc(Cl)cc1Cc1cc(Cl)ccc1OCC(=O)O [Example 2, [4-chloro-2-(5-chloro-2-ethoxycarbonylmethoxy-benzyl)-phenoxy]-acetic acid]"
52,58,"CC(C)(Oc1ccc(Cl)cc1Cc1cc(Cl)ccc1OCC(=O)O)C(=O)O [Example 13, 2-[2-(2-carboxymethoxy-5-chloro-benzyl)-4-chloro-phenoxy]-2-methyl-propionic acid]"

# From patent US20080312322A1, “Organic Compounds” (priority 2005, published 2008)
